Measured values as given in publication PMC11033495 (Pharmacology Research & Perspectives, 2024).
Read-outs that look alike come from different tables or passages of the source.

Tests used:
[1] = system: CYP3A4; assay: In vivo DDI study: KCZ pretreatment before oral TRZ in mice fed ND or HCD; set-up: species or system hCYP3A mice; settings: for Percentage of decline in AUCRα-OH: 40 mg/kg KCZ oral 15 min before oral TRZ 1 mg/kg, versus vehicle
[2] = system: CYP3A4; assay: Inhibition of TRZ hydroxylation by KCZ in pooled liver microsomes; format: biochemical, hCYP3A mice; settings: 0.01, 0.1 and 1 μM KCZ; pooled liver microsomes of ND and HCD mice
[3] = system: CYP3A4; format: in vivo; settings: oral TRZ 1 mg/kg; hCYP3A mice fed HCD versus ND
[4] = format: in vivo, hCYP3A mice; settings: mean ± SD, n = 4
[5] = system: CYP3A4; assay: Plasma 4β-OH cholesterol as biomarker of CYP3A4 activity in mice fed ND or HCD; format: in vivo; settings: hCYP3A mice
[6] = both ND and HCD mice, 40 mg/kg KCZ oral, TRZ 1 mg/kg oral
[7] = hCYP3A mice fed CA-diet (CE-2 + 0.5% CA) for 1 week
[8] = hCYP3A mice fed ND (CE-2) for 1 week

CC(=O)N1CCN(c2ccc(OCC3COC(Cn4ccnc4)(c4ccc(Cl)cc4Cl)O3)cc2)CC1 (stereo not drawn) [KCZ, ketoconazole]
Percentage of decline in AUCRα-OH ([1]; HCD mice): 46%
Percentage of decline in AUCRα-OH ([1]; ND mice): 49%
Effect of pretreatment on plasma concentrations of TRZ [1, 6]: tended to increase
Effect of pretreatment on plasma concentrations of α-OH TRZ [1, 6]: decrease
Effect on microsomal activity of TRZ hydroxylation in liver [2]: inhibited

OCc1nnc2n1-c1ccc(Cl)cc1C(c1ccccc1Cl)=NC2 [α‐OH TRZ, α‐hydroxy triazolam]
Plasma concentrations and AUC values in HCD mice compared with ND mice [3]: lower

Cc1nnc2n1-c1ccc(Cl)cc1C(c1ccccc1Cl)=NC2O (stereo not drawn) [4‐OH TRZ, 4‐hydroxy triazolam]
Plasma concentrations and AUC values in HCD mice compared with ND mice [3]: lower

Cc1nnc2n1-c1ccc(Cl)cc1C(c1ccccc1Cl)=NC2 [TRZ, triazolam, reference compound]
Plasma concentrations and AUC values in HCD mice compared with ND mice [3]: lower

CC(C)CCC[C@@H](C)[C@H]1CC[C@H]2[C@@H]3CC=C4C[C@@H](O)CC[C@]4(C)[C@H]3CC[C@]12C [Cholesterol, cholesterol]
Plasma concentration [4, 7]: 2250 ± 336 µg/mL
Plasma concentration [4, 8]: 1361 ± 152 µg/mL

C[C@H](CCC(=O)O)[C@H]1CC[C@H]2[C@@H]3[C@H](O)C[C@@H]4C[C@H](O)CC[C@]4(C)[C@H]3C[C@H](O)[C@]12C [CA, cholic acid]
Plasma concentration [4, 7]: 1.35 ± 1.869 µg/mL
Plasma concentration [4, 8]: 0.312 ± 0.243 µg/mL

CC(C)CCC[C@@H](C)[C@H]1CC[C@H]2[C@@H]3CC=C4[C@@H](O)[C@@H](O)CC[C@]4(C)[C@H]3CC[C@]12C [4β‐OH cholesterol, 4β‐Hydroxy (4β‐OH) cholesterol]
Plasma concentration ratio (4β-OH cholesterol/cholesterol), HCD versus ND [5]: not significantly different
Plasma level in mice fed HCD compared with mice fed ND ([5]; HCD versus ND): significantly higher
Increase of plasma level by HCD ([5]; HCD versus ND, Figure S4A): about twofold
